pIC50, pKd: −log10 of the molar value. Like-named read-outs stand apart in the source and are kept apart here.
Assays:
[1] = target: GDP-bound NRAS wild-type protein (Homo sapiens, UniProt P01111); assay: Binding to NRAS by surface plasmon resonance (SPR), Single Cycle Kinetics; conditions: for NRAS/KRAS (ratio of KD value with respect to GDP-bound NRAS wild-type protein to KD value with respect to KRAS): SPR KD ratio NRAS/KRAS, class symbols; for NRAS/KRAS (ratio of KD value for NRAS to KD value for KRAS): GDP-bound NRAS wild-type protein vs GDP-bound KRAS wild-type protein
[2] = target: GDP-bound HRAS wild-type protein (Homo sapiens, UniProt P01112); assay: Binding to HRAS by surface plasmon resonance (SPR), Single Cycle Kinetics; conditions: for HRAS/KRAS (ratio of KD value with respect to GDP-bound HRAS wild-type protein to KD value with respect to KRAS): SPR KD ratio HRAS/KRAS, class symbols; for HRAS/KRAS (ratio of KD value for HRAS to KD value for KRAS): GDP-bound HRAS wild-type protein vs GDP-bound KRAS wild-type protein
[3] = system: human lung cancer strain NCI-H441;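 further: cell proliferation inhibition after four days measured by CellTiter-Glo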
[4] = target: GDP-bound KRAS wild-type protein (Homo sapiens, UniProt P01116); assay: Binding to KRAS by surface plasmon resonance (SPR), Single Cycle Kinetics
[5] = SPR Single Cycle Kinetics, GDP-bound KRAS wild-type protein, 1:1 binding model, read-out: KRAS KD
[6] = SPR, Single Cycle Kinetics, 1:1 binding model, GDP-bound KRAS wild-type protein, read-out: KRAS KD
[7] = SPR, Single Cycle Kinetics, GDP-bound KRAS wild-type protein, read-out: KRAS KD

Chain of GDP-bound NRAS wild-type protein (P01111 whole entry): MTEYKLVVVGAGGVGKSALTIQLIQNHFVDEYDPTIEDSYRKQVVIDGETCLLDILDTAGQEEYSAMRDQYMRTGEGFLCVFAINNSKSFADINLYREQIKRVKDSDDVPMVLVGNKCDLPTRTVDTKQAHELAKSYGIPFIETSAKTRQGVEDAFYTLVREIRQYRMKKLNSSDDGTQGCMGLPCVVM
Chain of GDP-bound HRAS wild-type protein (P01112 whole entry): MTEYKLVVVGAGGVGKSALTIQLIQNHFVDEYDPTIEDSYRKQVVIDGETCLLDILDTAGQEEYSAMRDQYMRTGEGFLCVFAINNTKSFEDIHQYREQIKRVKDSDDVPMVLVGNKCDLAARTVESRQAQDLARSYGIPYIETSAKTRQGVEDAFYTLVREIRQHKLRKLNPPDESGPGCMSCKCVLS
Chain of GDP-bound KRAS wild-type protein (P01116 whole entry): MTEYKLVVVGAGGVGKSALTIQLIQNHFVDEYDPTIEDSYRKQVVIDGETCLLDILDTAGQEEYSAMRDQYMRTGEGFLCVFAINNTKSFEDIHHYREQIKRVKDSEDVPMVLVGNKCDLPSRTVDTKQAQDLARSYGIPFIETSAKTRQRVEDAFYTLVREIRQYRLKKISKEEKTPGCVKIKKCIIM

Row | pIC50 [3] | pKd [4, 5] | pKd [4, 6] | pKd [4, 7] | Structure (SMILES) | NRAS/KRAS (ratio of KD value with respect to GDP-bound NRAS wild-type protein to KD value with respect to KRAS) [1] | HRAS/KRAS (ratio of KD value with respect to GDP-bound HRAS wild-type protein to KD value with respect to KRAS) [2] | NRAS/KRAS (ratio of KD value for NRAS to KD value for KRAS) ([1]; SPR, KD ratio class) | HRAS/KRAS (ratio of KD value for HRAS to KD value for KRAS) ([2]; SPR, KD ratio class) | NRAS/KRAS (ratio of KD value for NRAS to KD value for KRAS) ([1]; SPR) | HRAS/KRAS (ratio of KD value for HRAS to KD value for KRAS) ([2]; SPR) | also measured
1 | 7.12 | 9.13 | – | – | CCC[C@H]1C(=O)N[C@@H]([C@@H](C)CC)C(=O)N(C)CC(=O)N(C)[C@H]2C/C=C\CCN(C2=O)[C@@H](Cc2ccc(C)cc2)C(=O)N(C)CC(=O)N[C@@H](CCc2ccc(Cl)c(Cl)c2)C(=O)N2C[C@H](OC(C)C)C[C@H]2C(=O)NC2(CC(C)(C)C2)C(=O)N(C)[C@@H](C(CC)CC)C(=O)N(C)[C@H](C(=O)N(C)C)CC(=O)N1C [PP2537] | AA (a compound having 20 or more is denoted as AA) | A (a compound having 10 or more and less than 20 is denoted as A) | – | – | – | – | –
2 | 7.70 | 9.37 | – | – | CCOC[C@H]1C(=O)N[C@@H]([C@@H](C)CC)C(=O)N(C2CC2)CC(=O)N(C)[C@H]2C/C=C\CCN(C2=O)[C@@H](Cc2ccc(C)cc2)C(=O)N(C)CC(=O)N[C@@H](CCc2ccc(C(F)(F)F)c(OC)c2)C(=O)N2C[C@H](OCC)C[C@H]2C(=O)NC2(CC(C)(C)C2)C(=O)N(C)[C@@H](CC(C)(C)C)C(=O)N(C)[C@H](C(=O)N(C)C)CC(=O)N1C [PP2724] | A (a compound having 10 or more and less than 20 is denoted as A) | B (a compound having 3 or more and less than 10 is denoted as B) | – | – | – | – | –
3 | 7.27 | – | 9.89 | – | CCO[C@@H]1C[C@H]2C(=O)NC3(CCC3)C(=O)N(C)[C@@H](C3CCCC3)C(=O)N(C)[C@H](C(=O)N(C)C)CC(=O)N(C)[C@@H](CC)C(=O)N[C@@H](C(C)C)C(=O)N(C)CC(=O)N(C)[C@H]3C/C=C\CCN(C3=O)[C@@H](Cc3ccc(C(F)(F)F)cc3)C(=O)N(C)CC(=O)N[C@@H](CCc3cc(F)c(C(F)(F)F)c(F)c3)C(=O)N2C1 [PP1270] | – | – | A (a compound having 10 or more and less than 20 is denoted as A) | B (a compound having 3 or more and less than 10 is denoted as B) | – | – | –
4 | 7.30 | – | 9.25 | – | CCO[C@@H]1C[C@H]2C(=O)NC3(CCC3)C(=O)N(C)[C@@H](C(CC)CC)C(=O)N(C)[C@H](C(=O)N3CCOCC3)CC(=O)N(C)[C@@H](CC(C)C)C(=O)N[C@@H]([C@@H](C)CC)C(=O)N(C)CC(=O)N(C)[C@H]3C/C=C\CCN(C3=O)[C@@H](Cc3ccc(C(F)(F)F)cc3)C(=O)N(C)CC(=O)N[C@@H](CCc3cc(F)c(C(F)(F)F)c(F)c3)C(=O)N2C1 [PP1287] | – | – | AA (a compound having 20 or more is denoted as AA) | A (a compound having 10 or more and less than 20 is denoted as A) | – | – | –
5 | 7.59 | 9.28 | – | – | CCC[C@H]1C(=O)N[C@@H]([C@@H](C)CC)C(=O)N(C)CC(=O)N(C)[C@H]2C/C=C\CCN(C2=O)[C@@H](Cc2ccc(C(F)(F)F)cc2)C(=O)N(C)CC(=O)N[C@@H](CCc2ccc(Cl)c(Cl)c2)C(=O)N2C[C@H](OCC)C[C@H]2C(=O)NC2(CC(C)(C)C2)C(=O)N(C)[C@@H](CC2CCC2)C(=O)N(C)[C@H](C(=O)N(C)C)CC(=O)N1C [PP2766] | A (a compound having 10 or more and less than 20 is denoted as A) | A (a compound having 10 or more and less than 20 is denoted as A) | – | – | – | – | –
6 | 7.26 | – | – | 10.03 | CCO[C@@H]1C[C@H]2C(=O)NC3(CCC3)C(=O)N(C)[C@@H](C3CCCC3)C(=O)N(C)[C@H](C(=O)N3CCOCC3)CC(=O)N(C)[C@@H](Cc3cccc(C#N)c3)C(=O)N[C@@H]([C@@H](C)CC)C(=O)N(C)CC(=O)N(C)[C@H]3CCCCCN(C3=O)[C@@H](Cc3ccc(F)cc3)C(=O)N(C)CC(=O)N[C@@H](CCc3cc(F)c(C(F)(F)F)c(F)c3)C(=O)N2C1 [PP1186] | – | – | – | – | B (a compound having 3 or more and less than 10 is denoted as B) | B (a compound having 3 or more and less than 10 is denoted as B) | –
7 | – | – | – | 9.57 | CCC[C@H]1C(=O)N[C@@H]([C@@H](C)CC)C(=O)N2CCC[C@H]2C(=O)N(C)[C@H]2C/C=C\CCN(C2=O)[C@@H](Cc2ccc(C(F)(F)F)cc2)C(=O)N(C)CC(=O)N[C@@H](CCc2cc(F)c(C(F)(F)F)c(F)c2)C(=O)N2C[C@H](OCC)C[C@H]2C(=O)N(C)C2(CCC2)C(=O)N(C)[C@@H](C2CCCC2)C(=O)N(C)[C@H](C(=O)N2CCCC2)CC(=O)N1C [PP3116] | – | – | – | – | A (a compound having 10 or more and less than 20 is denoted as A) | A (a compound having 10 or more and less than 20 is denoted as A) | ratio of the KD value with respect to GDP-bound NRAS wild-type protein to the KD value with respect to KRAS ([1]; SPR, KD(NRAS)/KD(KRAS)): A (a compound having 10 or more and less than 20 is denoted as A); ratio of the KD value with respect to GDP-bound HRAS wild-type protein to the KD value with respect to KRAS ([2]; SPR, KD(HRAS)/KD(KRAS)): A (a compound having 10 or more and less than 20 is denoted as A); pIC50 ([3]; read-out: NCI-H441 cell proliferation inhibitory activity, 50% proliferation inhibitory concentration (IC50 value), NCI-H441, four days, CellTiter-Glo): 8.11; pKd ([4]; SPR, Single Cycle Kinetics, 1:1 binding model, read-out: KD value with respect to GDP-bound KRAS wild-type protein): 9.57
8 | 8.42 | – | 9.77 | – | CCO[C@@H]1C[C@H]2C(=O)NC3(CCC3)C(=O)N(C)[C@@H](C3CCCC3)C(=O)N(C)[C@H](C(=O)N3CCCC3)CC(=O)N(C)[C@@H](CC(C)C)C(=O)N[C@@H]([C@@H](C)CC)C(=O)N(C)CC(=O)N(C)[C@H]3C/C=C\CCN(C3=O)[C@@H](Cc3ccc(C)cc3)C(=O)N(C)CC(=O)N[C@@H](CCc3cc(F)c(C(F)(F)F)c(F)c3)C(=O)N2C1 [PP1416] | – | – | A (a compound having 10 or more and less than 20 is denoted as A) | A (a compound having 10 or more and less than 20 is denoted as A) | – | – | –
9 | 8.80 | – | – | 9.72 | CCC[C@@H]1C[C@H]2C(=O)NC3(CC(C)(C)C3)C(=O)N(C)[C@@H](C3CCCC3)C(=O)N(C)[C@H](C(=O)N(C)C)CC(=O)N(C)[C@@H](C)C(=O)N[C@@H]([C@@H](C)CC)C(=O)N(C)CC(=O)N(C)[C@H]3C/C=C\CCN(C3=O)[C@@H](Cc3ccc(C(F)(F)F)cc3)C(=O)N(C)CC(=O)N[C@@H](CCc3cc(F)c(C(F)(F)F)c(F)c3)C(=O)N2C1 [PP2273] | – | – | – | – | AA (a compound having 20 or more is denoted as AA) | A (a compound having 10 or more and less than 20 is denoted as A) | –
10 | 6.86 | – | – | 8.85 | CCCOC[C@H]1C(=O)N[C@@H]([C@@H](C)OCC)C(=O)N2CCC[C@H]2C(=O)N(C)[C@H]2C/C=C\CCN(C2=O)[C@@H](Cc2ccc(C)cc2)C(=O)N(C)CC(=O)N[C@@H](CCc2cc(F)c(C(F)(F)F)c(F)c2)C(=O)N2C[C@H](OCC)C[C@H]2C(=O)NC2(CC(C)(C)C2)C(=O)N(C)[C@@H](C2CCCC2)C(=O)N(C)[C@H](C(=O)N(C)CC)CC(=O)N1C [PP2432] | – | – | – | – | A (a compound having 10 or more and less than 20 is denoted as A) | A (a compound having 10 or more and less than 20 is denoted as A) | –
11 | 7.85 | 9.52 | – | – | CCC[C@H]1C(=O)N[C@@H]([C@@H](C)CC)C(=O)N2C[C@@H](OC)C[C@H]2C(=O)N(C)[C@H]2C/C=C\CCN(C2=O)[C@@H](Cc2ccc(C)cc2)C(=O)N(C)CC(=O)N[C@@H](CCc2ccc(C(F)(F)F)c(OC)c2)C(=O)N2C[C@H](OCC)C[C@H]2C(=O)NC2(CC(C)(C)C2)C(=O)N(C)[C@@H](C2CCCC2)C(=O)N(C)[C@H](C(=O)N(C)C)CC(=O)N1C [PP2557] | A (a compound having 10 or more and less than 20 is denoted as A) | B (a compound having 3 or more and less than 10 is denoted as B) | – | – | – | – | –
12 | 7.32 | – | 9.60 | – | CC[C@H](C)[C@@H]1NC(=O)[C@H](CC)N(C)C(=O)C[C@@H](C(=O)N(C)C)N(C)C(=O)[C@H](C2CCCC2)N(C)C(=O)C2(CCC2)NC(=O)[C@@H]2C[C@H](C)CN2C(=O)[C@H](CCc2cc(F)c(C(F)(F)F)c(F)c2)NC(=O)CN(C)C(=O)[C@H](CC2CCCCC2)N2CC/C=C\C[C@@H](C2=O)N(C)C(=O)CN(C)C1=O [PP1471] | – | – | A (a compound having 10 or more and less than 20 is denoted as A) | A (a compound having 10 or more and less than 20 is denoted as A) | – | – | –
13 | 8.34 | – | 10.62 | – | CCO[C@@H]1C[C@H]2C(=O)NC3(CCCC3)C(=O)N(C)[C@@H](C3CCCC3)C(=O)N(C)[C@H](C(=O)N(C)C)CC(=O)N(C)[C@@H](CC)C(=O)N[C@@H]([C@@H](C)CC)C(=O)N(C)CC(=O)N(C)[C@H]3C[C@@H](C)[C@@H](C)CN(C3=O)[C@@H](Cc3ccc(C(F)(F)F)cc3)C(=O)N(C)CC(=O)N[C@@H](CCc3cc(F)c(C(F)(F)F)c(F)c3)C(=O)N2C1 [PP1352] | – | – | A (a compound having 10 or more and less than 20 is denoted as A) | B (a compound having 3 or more and less than 10 is denoted as B) | – | – | –
